Results on 47 compounds are retold here after ChEMBL document CHEMBL4840344, “Discovery of 1,8-naphthalidine derivatives as potent anti-hepatic fibrosis agents via repressing PI3K/AKT/Smad and JAK2/STAT3 pathways” (Bioorg Med Chem, 2021).

Active and inactive are the calls of the source. The rule behind the calls is not given here.

Data set [1] in a line: Cytotoxicity against human LX2 cells assessed as cell death incubated for 24 hrs by MTT assay. The format is cell-based, LX-2.
For data set [2], the system named is COL1A1 promoter. As to the kind of experiment: Inhibition of COL1A1 promotor activity in human LX2 cells at 50 uM incubated for 24 hrs by luciferase reporter gene assay. The format is cell-based.
In data set [3] the test system is COL1A1 promoter. As to the kind of experiment: Inhibition of COL1A1 promotor activity in human LX2 cells at 20 uM incubated for 24 hrs by luciferase reporter gene assay. The format is cell-based.

Turning to `CC[N+]1(CCCCCCCOc2cc(-n3cc(C(=O)Nc4cc(F)cc(F)c4)c(=O)c4ccc(N(C)C)nc43)ccc2Cl)CCCC1`, the CC50 – broadly, the concentration giving 50% cytotoxicity – at 24 h in data set [1] worked out at 61.3 µM. The inhibition (usually the drop in the measured response relative to a control, in per cent) with COL1A1 promoter [2] came to 96.4%; in the data set on COL1A1 promoter [3], 46%.
In the case of `Cc1ccc(-n2cc(C(=O)Nc3cc(F)cc(F)c3)c(=O)c3ccc(N(C)C)nc32)cc1OCCCCCCC[N+](C)(C)C1CCCCC1`, the inhibition in the data set with COL1A1 promoter [2] came out at 61.7%; with COL1A1 promoter [3] it was 32.3%.
Turning to `CN1CC[N+](C)(CCCCCCCOc2ccc(-n3cc(C(=O)Nc4cc(F)cc(F)c4)c(=O)c4ccc(N(C)C)nc43)cc2Cl)CC1`, the inhibition in the data set with COL1A1 promoter [2] was determined as 15.4%.
On the same count and under the same terms, under `CN(C)c1ccc2c(=O)c(C(=O)Nc3cc(F)cc(F)c3)cn(-c3ccc(OCCCCCCC[N+]4(C)CCCCC4)c(Cl)c3)c2n1` stands “inactive”.
`Cc1cc(-n2cc(C(=O)Nc3cc(F)cc(F)c3)c(=O)c3ccc(N(C)C)nc32)ccc1OCCCCCCC[n+]1ccccc1` displayed an inhibition in the data set with COL1A1 promoter [2] of 55%. Further, in the data set with COL1A1 promoter [3], the inhibition result was “inactive”.
With `CN(C)c1ccc2c(=O)c(C(=O)Nc3cc(F)cc(F)c3)cn(-c3ccc(OCCCCCCC[N+]4(C)CCCCC4)cc3F)c2n1`, the CC50 at 24 h in data set [1] is below 20 µM. The inhibition entry with COL1A1 promoter [2] and in the data set with COL1A1 promoter [3] was “inactive” in each case.
On to `Cc1ccc(-n2cc(C(=O)Nc3cc(F)cc(F)c3)c(=O)c3ccc(N(C)C)nc32)cc1OCCCCCCC[N+]12CCN(CC1)CC2`, for which the inhibition with COL1A1 promoter [2] was determined as 9.71%; in the data set on COL1A1 promoter [3], 5.07%.
With `Cc1cc(-n2cc(C(=O)Nc3cc(F)cc(F)c3)c(=O)c3ccc(N(C)C)nc32)ccc1OCCCCCCC[N+]12CCN(CC1)CC2`, the inhibition in the data set on COL1A1 promoter [2] stood at 20.8%; with COL1A1 promoter [3], 10.6%.
Turning to `CC[N+]1(CCCCCCCOc2ccc(-n3cc(C(=O)Nc4cc(F)cc(F)c4)c(=O)c4ccc(N(C)C)nc43)c(F)c2)CCCC1`, the CC50 at 24 h in data set [1] is below 20 µM. Besides, the inhibition entry in the data set on COL1A1 promoter [2] and in the data set with COL1A1 promoter [3] was “inactive” in each case.
Consider `CN1CC[N+](C)(CCCCCCCOc2ccc(-n3cc(C(=O)Nc4cc(F)cc(F)c4)c(=O)c4ccc(N(C)C)nc43)c(Cl)c2)CC1`, for which the CC50 at 24 h in data set [1] is below 20 µM. For the same compound, the inhibition entry in the data set with COL1A1 promoter [2] and with COL1A1 promoter [3] was “inactive” in each case.
Regarding `Cc1cc(-n2cc(C(=O)Nc3cc(F)cc(F)c3)c(=O)c3ccc(N(C)C)nc32)ccc1OCCCCCCC[N+]1(C)CCCCC1`, the inhibition in the data set on COL1A1 promoter [2] worked out at 54.4%; in the data set with COL1A1 promoter [3], 33%.
`Cc1cc(OCCCCCCC[N+]2(C)CCN(C)CC2)cc(-n2cc(C(=O)Nc3cc(F)cc(F)c3)c(=O)c3ccc(N(C)C)nc32)c1`: the inhibition with COL1A1 promoter [2] stood at 38.2%; in the data set with COL1A1 promoter [3] it was 2.8%.
Take `CN(C)c1ccc2c(=O)c(C(=O)Nc3cc(F)cc(F)c3)cn(-c3ccc(OCCCCCCC[N+]4(C)CCCCC4)cc3Cl)c2n1`: the CC50 at 24 h in data set [1] is below 20 µM. The inhibition entry in the data set with COL1A1 promoter [2] and in the data set with COL1A1 promoter [3] was “inactive” each time.
Regarding `CC[N+]1(CCCCCCCOc2cc(C)cc(-n3cc(C(=O)Nc4cc(F)cc(F)c4)c(=O)c4ccc(N(C)C)nc43)c2)CCCC1`, the inhibition in the data set on COL1A1 promoter [2] came to 73.2%; with COL1A1 promoter [3], 35.1%.
In the case of `CC[N+]1(CCCCCCCOc2ccc(-n3cc(C(=O)Nc4cc(F)cc(F)c4)c(=O)c4ccc(N(C)C)nc43)cc2C)CCCCC1`, the inhibition in the data set with COL1A1 promoter [2] worked out at 53.4%; in the data set with COL1A1 promoter [3], 19.7%.
For the compound `O=C(O[C@@H]1Cc2c(O)cc(O)cc2O[C@@H]1c1cc(O)c(O)c(O)c1)c1cc(O)c(O)c(O)c1` [EPIGALOCATECHIN GALLATE], in data set [1], the CC50 at 24 h was above 100 µM. In addition, the inhibition in the data set on COL1A1 promoter [2] is 32.2%; in the data set with COL1A1 promoter [3], 19.2%.
Consider `Cc1cc(OCCCCCCC[N+]23CCN(CC2)CC3)ccc1-n1cc(C(=O)Nc2cc(F)cc(F)c2)c(=O)c2ccc(N(C)C)nc21`, for which the CC50 at 24 h in data set [1] was below 20 µM. The inhibition result in the data set with COL1A1 promoter [2] and in the data set on COL1A1 promoter [3] was “inactive” throughout.
Consider `Cc1cc(OCCCCCCC[n+]2ccccc2)cc(-n2cc(C(=O)Nc3cc(F)cc(F)c3)c(=O)c3ccc(N(C)C)nc32)c1`, for which the inhibition in the data set on COL1A1 promoter [2] is 61%; in the data set with COL1A1 promoter [3] it was 7.7%.
For `Cc1cc(OCCCCCCC[N+]2(C)CCCC2)cc(-n2cc(C(=O)Nc3cc(F)cc(F)c3)c(=O)c3ccc(N(C)C)nc32)c1` the same measures were 35.4% and 4.32%.
For `Cc1cc(OCCCCCCC[n+]2ccccc2)ccc1-n1cc(C(=O)Nc2cc(F)cc(F)c2)c(=O)c2ccc(N(C)C)nc21` the same measures were “inactive” and “inactive”.
As to `Cc1cc(OCCCCCCC[N+](C)(C)C2CCCCC2)cc(-n2cc(C(=O)Nc3cc(F)cc(F)c3)c(=O)c3ccc(N(C)C)nc32)c1`, in data set [1], the CC50 at 24 h amounted to 61.8 µM. Further, the inhibition in the data set on COL1A1 promoter [2] was 89.1%; in the data set with COL1A1 promoter [3], 52.5%.
For `Cc1cc(OCCCCCCC[N+]2(C)CCCC2)ccc1-n1cc(C(=O)Nc2cc(F)cc(F)c2)c(=O)c2ccc(N(C)C)nc21`, in that order: below 20 µM, “inactive” and “inactive”.
As to `CC[N+]1(CCCCCCCOc2cc(-n3cc(C(=O)Nc4cc(F)cc(F)c4)c(=O)c4ccc(N(C)C)nc43)ccc2Cl)CCCCC1`, the inhibition entry with COL1A1 promoter [2] and in the data set with COL1A1 promoter [3] was “inactive” in each case.
Turning to `Cc1cc(OCCCCCCC[N+]23CCN(CC2)CC3)cc(-n2cc(C(=O)Nc3cc(F)cc(F)c3)c(=O)c3ccc(N(C)C)nc32)c1`, the inhibition with COL1A1 promoter [2] turned out to be 5.52%; with COL1A1 promoter [3], 10.3%.
Regarding `CN(C)c1ccc2c(=O)c(C(=O)Nc3cc(F)cc(F)c3)cn(-c3ccc(OCCCCCCC[n+]4ccccc4)cc3F)c2n1`, the CC50 at 24 h in data set [1] was below 20 µM. The inhibition entry in the data set on COL1A1 promoter [2] was “inactive”. Further, the inhibition with COL1A1 promoter [3] worked out at 15.4%.
In the data set with COL1A1 promoter [2], `CN(C)c1ccc2c(=O)c(C(=O)Nc3cc(F)cc(F)c3)cn(-c3ccc(OCCCCCCC[n+]4ccccc4)c(Cl)c3)c2n1` showed an inhibition of 21.4%.
As for `CC[N+]1(CCCCCCCOc2ccc(-n3cc(C(=O)Nc4cc(F)cc(F)c4)c(=O)c4ccc(N(C)C)nc43)c(Cl)c2)CCCCC1`, in data set [1], the CC50 at 24 h was below 20 µM. In addition, the inhibition result in the data set on COL1A1 promoter [2] and with COL1A1 promoter [3] was “inactive” each time.
In the data set on COL1A1 promoter [2], `CC[N+]1(CCCCCCCOc2ccc(-n3cc(C(=O)Nc4cc(F)cc(F)c4)c(=O)c4ccc(N(C)C)nc43)cc2Cl)CCCC1` returned an inhibition of 23.5%.
Regarding `Cc1cc(OCCCCCCC[N+]2(C)CCCCC2)ccc1-n1cc(C(=O)Nc2cc(F)cc(F)c2)c(=O)c2ccc(N(C)C)nc21`, in data set [1], the CC50 at 24 h was below 20 µM. For the same compound, the inhibition result with COL1A1 promoter [2] and with COL1A1 promoter [3] was “inactive” in each case.
For `CN(C)c1ccc2c(=O)c(C(=O)Nc3cc(F)cc(F)c3)cn(-c3ccc(OCCCCCCC[N+](C)(C)C4CCCCC4)cc3F)c2n1`, the inhibition entry with COL1A1 promoter [2] and in the data set on COL1A1 promoter [3] was “inactive” in each case.
Take `CN(C)c1ccc2c(=O)c(C(=O)Nc3cc(F)cc(F)c3)cn(-c3ccc(Cl)c(OCCCCCCC[N+]45CCN(CC4)CC5)c3)c2n1`: the figures for the inhibition with COL1A1 promoter [2] and with COL1A1 promoter [3] were 18.7% and 8.08%, respectively.
For `CC[N+]1(CCCCCCCOc2ccc(-n3cc(C(=O)Nc4cc(F)cc(F)c4)c(=O)c4ccc(N(C)C)nc43)cc2Cl)CCCCC1`, in that order: 50.4% and 14.3%.
For `Cc1ccc(-n2cc(C(=O)Nc3cc(F)cc(F)c3)c(=O)c3ccc(N(C)C)nc32)cc1OCCCCCCC[n+]1ccccc1` the same measures were 22.2% and 39.7%.
On to `Cc1cc(OCCCCCCC[N+]2(C)CCN(C)CC2)ccc1-n1cc(C(=O)Nc2cc(F)cc(F)c2)c(=O)c2ccc(N(C)C)nc21`, for which the CC50 at 24 h in data set [1] is below 20 µM. In addition, the inhibition entry with COL1A1 promoter [2] and in the data set on COL1A1 promoter [3] was “inactive” throughout.
Turning to `CN(C)c1ccc2c(=O)c(C(=O)Nc3cc(F)cc(F)c3)cn(-c3ccc(OCCCCCCC[N+](C)(C)C4CCCCC4)cc3Cl)c2n1`, the inhibition result in the data set with COL1A1 promoter [2] and with COL1A1 promoter [3] was “inactive” each time.
As to `Cc1cc(-n2cc(C(=O)Nc3cc(F)cc(F)c3)c(=O)c3ccc(N(C)C)nc32)ccc1OCCCCCCC[N+]1(C)CCCC1`, the inhibition in the data set with COL1A1 promoter [2] is 35.9%; with COL1A1 promoter [3], 26.1%.
For `CN(C)c1ccc2c(=O)c(C(=O)Nc3cc(F)cc(F)c3)cn(-c3ccc(OCCCCCCC[n+]4ccccc4)cc3Cl)c2n1`, in that order: “inactive” and “inactive”.
As to `CN(C)c1ccc2c(=O)c(C(=O)Nc3cc(F)cc(F)c3)cn(-c3ccc(OCCCCCCC[N+]45CCN(CC4)CC5)c(Cl)c3)c2n1`, in the data set on COL1A1 promoter [2], the inhibition amounted to 20.4%.
`CN(C)c1ccc2c(=O)c(C(=O)Nc3cc(F)cc(F)c3)cn(-c3ccc(OCCCCCCC[N+]4(C)CCCC4)c(Cl)c3)c2n1`: the inhibition in the data set with COL1A1 promoter [2] turned out to be 2.59%.
`Cc1cc(-n2cc(C(=O)Nc3cc(F)cc(F)c3)c(=O)c3ccc(N(C)C)nc32)ccc1OCCCCCCC[N+]1(C)CCN(C)CC1`: the values for the inhibition in the data set on COL1A1 promoter [2] and in the data set on COL1A1 promoter [3] were 32% and 16.2%, respectively.
For `Cc1ccc(-n2cc(C(=O)Nc3cc(F)cc(F)c3)c(=O)c3ccc(N(C)C)nc32)cc1OCCCCCCC[N+]1(C)CCN(C)CC1`, in that order: 25% and 10.3%.
For `Cc1cc(OCCCCCCC[N+](C)(C)C2CCCCC2)ccc1-n1cc(C(=O)Nc2cc(F)cc(F)c2)c(=O)c2ccc(N(C)C)nc21` the same measures were “inactive” and “inactive”.
`CN1CC[N+](C)(CCCCCCCOc2cc(-n3cc(C(=O)Nc4cc(F)cc(F)c4)c(=O)c4ccc(N(C)C)nc43)ccc2Cl)CC1`: the inhibition in the data set with COL1A1 promoter [2] is 45.2%; in the data set with COL1A1 promoter [3] it was 27.5%.
For `Cc1ccc(-n2cc(C(=O)Nc3cc(F)cc(F)c3)c(=O)c3ccc(N(C)C)nc32)cc1OCCCCCCC[N+]1(C)CCCC1` the same measures were 55.9% and 12.7%.
For `CN(C)c1ccc2c(=O)c(C(=O)Nc3cc(F)cc(F)c3)cn(-c3ccc(OCCCCCCC[N+]45CCN(CC4)CC5)cc3F)c2n1`, in that order: 42.4% and 9.02%.
For `Cc1ccc(-n2cc(C(=O)Nc3cc(F)cc(F)c3)c(=O)c3ccc(N(C)C)nc32)cc1OCCCCCCC[N+]1(C)CCCCC1`, the inhibition with COL1A1 promoter [2] was determined as 45.1%; in the data set with COL1A1 promoter [3] it was 23.4%.
Take `CN1CC[N+](C)(CCCCCCCOc2ccc(-n3cc(C(=O)Nc4cc(F)cc(F)c4)c(=O)c4ccc(N(C)C)nc43)c(F)c2)CC1`: in the data set on COL1A1 promoter [3], the inhibition result was “inactive”.
